Where “and” joins values, the source holds several entries; their conditions need not be identical. Equal entries are not always repeated.
What was measured:
P. aeruginosa LpxC = target: T1, P. aeruginosa LpxC (Pseudomonas aeruginosa, UniProt P47205); assay: LC–MS/MS-based P. aeruginosa LpxC enzyme inhibition assay; assay type: biochemical; settings: from IC50 via Cheng–Prusoff
T1 construct: made in house; host or cells: E. coli BL21(DE3)
Source text: As Pseudomonas aeruginosa is one of the so-called ESKAPE pathogens,[56] being the leading cause of nosocomial infections throughout the world, and carbapenem-resistant P. aeruginosa strains were assigned the highest priority (priority 1: critical) within the “WHO priority pathogens list for R&D of new antibiotics” (WHO 2017),[57] new antibacterial agents combating these bacteria are urgently required. Thus, our newly developed LpxC inhibitors should be tested for inhibitory activity toward P. aeruginosa LpxC, which shares 57% sequence identity with E. coli LpxC.[28] Therefore, a liquid chromatography with tandem mass spectrometry (LC–MS/MS)-based P. aeruginosa LpxC assay was established. […] After incubation and subsequent termination of the enzymatic reaction, the samples were subjected to LC–MS/MS analysis. Following the chromatographic separation of substrate 1 and deacetylated product 2, the eluted compounds were ionized and subjected to fragmentation. Three multiple reaction monitoring (MRM) transitions were detected per compound [precursor ions: m/z (substrate 1) 832; m/z (deacetylated product 2) 790; product ions: m/z (product 1) 385, collision energy = −60 V; m/z (product 2) 159, collision energy = −80 V; m/z (product 3) 79, collision energy = −140 V]. The MRM transitions 832 → 79 of substrate 1 and 790 → 79 of product 2 were used as quantifiers; the other mass transitions were used as qualifiers.
The protocol of the LC–MS/MS-based P. aeruginosa LpxC assay was based on the E. coli LpxC C63A enzyme assay. Compared to the fluorescence-based enzyme assay, the substrate was diluted 1:10 and the inhibitors were diluted 1:4.
The wells in a black, nonbinding, 96-well fluorescence microplate (Greiner Bio One, Frickenhausen) were filled with 93 μL of 2.69 μM UDP-3-O-[(R)-3-hydroxymyristoyl]-N-acetylglucosamine in assay buffer [50 mM KH2PO4/K2HPO4 (pH = 7.5), 80 μM dithiothreitol, 0.02% Brij 35]. In order to assay the inhibitors at final concentrations from 5 nM up to 5 μM, 2 μL of a respective dilution of the compounds in DMSO were added. The addition of 5 μL of a solution of purified P. aeruginosa LpxC (5 μg mL^–1) in assay buffer led to final concentrations of 2.5 μM UDP-3-O-[(R)-3-hydroxymyristoyl]-N-acetylglucosamine, 7.5 nM P. aeruginosa LpxC, 2% DMSO, and from 5 nM up to 5 μM inhibitor. The microplate was incubated for 30 min at 37 °C in a plate shaker. Then, the biochemical reaction was stopped by adding 40 μL of 0.625 M hydrochloric acid. The reaction mixtures were further incubated for 10 min, sealed, and stored at −80 °C until analysis.
LC–MS/MS-Analysis. The reaction mixtures were separated by ultrahigh performance liquid-chromatography (1290 II Infinity UHPLC, Agilent Technologies), and the eluted compounds were analyzed by mass spectrometry using electrospray ionization in negative ion mode with a triple quadrupole linear ion trap mass spectrometer (QTRAP 5500, AB Sciex LLC).
To analyze the eluted compounds by mass spectrometry, a MRM method was applied. The specific parameters of this method are given in Table S2 (Supporting Information). After detection and selection of the precursor ions (1: m/z 832; 2: m/z 790), both analytes were fragmented, leading to three identical product ions [m/z (product 1) 385, collision energy = −60 V; m/z (product 2) 159, collision energy = −80 V; m/z (product 3) 79, collision energy = −140 V]. The mass transitions 832 → 79 (substrate 1) and 790 → 79 (product 2) were used as quantifiers; the other mass transitions were used as qualifiers. The ratio between substrate 1 and product 2 was quantified by comparing the peak areas of the quantifiers. The percentual inhibition caused by each inhibitor concentration was determined with respect to the amount of the product formed in the noninhibited reaction after 30 min.
Each assay was performed at least two times on separate days. […]

[1] = tested on: K. pneumoniae ATCC 700603; assay: disc diffusion assay; assay type: cell-based, Klebsiella pneumoniae; settings: 0.15 μmol per 6 mm disc
Description: In the performed disc diffusion assays, indole derivatives (S)-13h, (S)-13i, and (S)-13j caused promising halos of growth inhibition.
The disc diffusion assays against E. coli TOP10 (Thermo Fisher, Waltham, USA), E. coli ATCC 35218, K. pneumoniae ATCC 700603, and P. aeruginosa ATCC 27853 were performed as follows: the bacteria were grown overnight on a Columbia blood agar plate (Oxoid, Basingstoke, UK), and one colony was suspended in sterile saline to yield a suspension of 0.5 McFarland standard. Using a sterile swab, the suspension was spread evenly onto Mueller–Hinton agar (Oxoid, Basingstoke, UK). 0.15 μmol of each compound (dissolved in 10 μL DMSO) was applied onto circular 6 mm diameter filter paper disks, which were then placed on the agar. After incubating the agar plates for 20 h at 37 °C, the diameter of the zone of growth inhibition was measured for each compound.

[2] = plasma protein binding, human; assay type: in vitro ADME
Description: The microsomal metabolic stability assay as well as the plasma protein binding assay were conducted as described previously.[78]

MMP3 = target: T2, MMP3 (Homo sapiens, UniProt P08254); assay: MMP3 inhibition (SensoLyte 520 Generic MMP Activity Kit); assay type: biochemical; settings: read-out: MMP3 (% inhibition at 100 μM)
T2 construct: purchased AnaSpec (Fremont, CA, USA)
Description: Since LpxC and LasB are zinc-dependent enzymes, we investigated potential off-target activity of the three frontrunners on mammalian zinc-dependent enzymes. Our panel comprised three representative matrix-metalloproteases (MMP1–3) and tumor necrosis factor-α converting enzyme (TACE, also known as ADAM17) (Table 6).
Purification of LasB from P. aeruginosa PA14 supernatant and the subsequent performance of the FRET-based in vitro inhibition assay was performed as described previously.[66] The TACE (ADAM-17) inhibitor screening kit was purchased from Sigma-Aldrich (Saint Louis, MO). MMPs 1–3 along with the SensoLyte 520 Generic MMP Activity Kit Fluorimetric were purchased from AnaSpec (Fremont, CA, USA). The assays were performed according to the guidelines of the respective manufacturer. Fluorescence signals were measured using a CLARIOstar plate reader (BMG Labtech, Ortenberg, Germany).

T1 sequence (P47205 whole entry): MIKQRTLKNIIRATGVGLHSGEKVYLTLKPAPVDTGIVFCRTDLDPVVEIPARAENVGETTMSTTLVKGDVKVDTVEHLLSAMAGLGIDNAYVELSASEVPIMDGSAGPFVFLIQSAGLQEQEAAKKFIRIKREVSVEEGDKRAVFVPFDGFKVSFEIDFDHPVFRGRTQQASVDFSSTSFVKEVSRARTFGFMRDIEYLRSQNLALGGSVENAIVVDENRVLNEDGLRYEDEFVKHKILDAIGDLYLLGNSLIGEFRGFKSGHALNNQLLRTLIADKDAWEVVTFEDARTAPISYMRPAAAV
T2 sequence (P08254 100-477, species assumed): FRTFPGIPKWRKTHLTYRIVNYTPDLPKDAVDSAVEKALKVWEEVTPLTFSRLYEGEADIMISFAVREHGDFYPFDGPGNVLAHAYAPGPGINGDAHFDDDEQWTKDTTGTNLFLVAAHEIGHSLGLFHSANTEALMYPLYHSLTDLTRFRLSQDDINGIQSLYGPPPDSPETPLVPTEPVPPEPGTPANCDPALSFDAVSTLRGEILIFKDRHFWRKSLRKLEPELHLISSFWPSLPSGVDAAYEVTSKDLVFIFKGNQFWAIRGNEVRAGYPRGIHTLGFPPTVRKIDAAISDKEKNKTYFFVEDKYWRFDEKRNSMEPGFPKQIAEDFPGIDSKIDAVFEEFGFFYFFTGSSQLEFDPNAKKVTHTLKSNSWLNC

| SMILES | Ki (P. aeruginosa LpxC) | Inhibition zone K. pneumoniae ATCC 700603 [1] | fraction unbound [2] | inhibition at 100 µM (MMP3) |
| --- | --- | --- | --- | --- |
| O=C(NO)[C@H](COCc1ccccc1)OCc1ccc(C#Cc2ccc(CN3CCOCC3)cc2)cc1 [(S)-11a, (S)-3-(Benzyloxy)-N-hydroxy-2-[(4-{[4-(morpholinomethyl)phenyl]ethynyl}benzyl)oxy]propanamide] | 725 ± 335 nM |  |  |  |
| O=C(NO)[C@H](CNCc1ccccc1)OCc1ccc(C#Cc2ccc(CN3CCOCC3)cc2)cc1 [(S)-12a, (S)-3-(Benzylamino)-N-hydroxy-2-[(4-{[4-(morpholinomethyl)phenyl]ethynyl}benzyl)oxy]propanamide] | 862 ± 70 nM |  |  |  |
| O=C(NC[C@H](OCc1ccc(C#Cc2ccc(CN3CCOCC3)cc2)cc1)C(=O)NO)c1ccccc1 [(S)-13a, (S)-N-{3-(Hydroxyamino)-2-[(4-{[4-(morpholinomethyl)phenyl]ethynyl}benzyl)oxy]-3-oxopropyl}benzamide] | 58.2 ± 0.1 nM | 7.0 ± 1.0 mm |  |  |
| O=C(NC[C@H](OCc1ccc(C#Cc2ccc(CN3CCOCC3)cc2)cc1)C(=O)NO)c1cccc(-c2ccccc2)c1 [(S)-13c] | 149 ± 14 nM | <6 mm |  |  |
| O=C(NC[C@H](OCc1ccc(C#Cc2ccc(CN3CCOCC3)cc2)cc1)C(=O)NO)c1ccc(Oc2ccccc2)cc1 [(S)-13d] | 196 ± 18 nM | <6 mm |  |  |
| O=C(NC[C@H](OCc1ccc(C#Cc2ccc(CN3CCOCC3)cc2)cc1)C(=O)NO)c1ccc2ccccc2n1 [(S)-13e] | 168 ± 8 nM | <6 mm |  |  |
| O=C(NC[C@H](OCc1ccc(C#Cc2ccc(CN3CCOCC3)cc2)cc1)C(=O)NO)c1cnc2ccccc2c1 [(S)-13f] | 91.1 ± 17.5 nM | <6 mm |  |  |
| O=C(NC[C@H](OCc1ccc(C#Cc2ccc(CN3CCOCC3)cc2)cc1)C(=O)NO)c1cc2ccccc2[nH]1 [(S)-13g] | 46 ± 16.4 nM | <6 mm |  |  |
| O=C(NC[C@H](OCc1ccc(C#Cc2ccc(CN3CCOCC3)cc2)cc1)C(=O)NO)c1c[nH]c2ccccc12 [(S)-13h] | 5.91 ± 1.47 nM | 6.7 ± 1.2 mm | 0.0175 | < 10% |
| O=C(NC[C@H](OCc1ccc(C#Cc2ccc(CN3CCOCC3)cc2)cc1)C(=O)NO)c1cccc2[nH]ccc12 [(S)-13i] | 10.3 ± 2 nM | 7.3 ± 1.2 mm |  |  |
| O=C(NC[C@H](OCc1ccc(C#Cc2ccc(CN3CCOCC3)cc2)cc1)C(=O)NO)c1ccc2[nH]ccc2c1 [(S)-13j] | 5.6 nM and 5.58 nM | 8.0 ± 1.7 mm | 0.0205 | 16 ± 1% |
| O=C(NC[C@H](OCc1ccc(C#Cc2ccc(CN3CCOCC3)cc2)cc1)C(=O)NO)c1ccc[nH]1 [(S)-13k] | 29 ± 7.6 nM | 9.5 ± 0.7 mm |  |  |
| O=C(NC[C@H](OCc1ccc(C#Cc2ccc(CN3CCOCC3)cc2)cc1)C(=O)NO)c1cc[nH]n1 [(S)-13l] | 18 ± 2.9 nM | 11.5 ± 0.7 mm | 0.0224 | 19 ± 2% |
| O=C(NC[C@H](OCc1ccc(C#Cc2ccc(CN3CCOCC3)cc2)cc1)C(=O)NO)c1cc(-c2ccccc2)[nH]n1 [(S)-13m] | 41.9 ± 18.5 nM | <6 mm |  |  |
| Cc1noc(C)c1C(=O)NC[C@H](OCc1ccc(C#Cc2ccc(CN3CCOCC3)cc2)cc1)C(=O)NO [(S)-13n] | 80.4 ± 9.7 nM | 7.0 ± 1.0 mm |  |  |
| O=C(NO)[C@H](CN(Cc1ccccc1)Cc1ccccc1)OCc1ccc(C#Cc2ccc(CN3CCOCC3)cc2)cc1 [(S)-37, (S)-3-(Dibenzylamino)-N-hydroxy-2-[(4-{[4-(morpholinomethyl)phenyl]ethynyl}benzyl)oxy]propanamide] | > 3250 nM |  |  |  |

Reference: PMC11472313, “Development of Fragment-Based Inhibitors of the Bacterial Deacetylase LpxC with Low Nanomolar Activity” (Journal of Medicinal Chemistry, 2024)
